Assays:
[1] = tested on: Ehrlich ascites carcinoma; test: Ehrlich ascites carcinoma growth in CF1 male mice; assay type: in vivo, mouse
Method: CF1 male mice (~30 g) were implanted with 2×10^6 Ehrlich ascites tumor cells, intraperitoneally on Day 0. Compound I was suspended by homogenation in 0.05% polysorbate.80-water and administered intraperitoneally at 10 and 20 mg/kg for 9 days to determine its effectiveness for inhibition of tumor growth. Mice were sacrificed on Day 10, and the ascites fluid was collected from the peritoneal cavity. The volume and ascrit (packed cell volume) were determined for each animal and the percent inhibition of tumor growth was calculated. For the metabolic studies, mice were treated on Days 8 and 9 with 10 mg/kg of Compound I, intraperitoneally. The animal was sacrificed on Day 10 and the ascites fluid harvested. The in vitro metabolic studies were performed at […] final concentration of Compound I.

[2] = doses of 150-200 mg/kg; cited from earlier work

SMILES | Ascrit Packed Cell Vol. ([1]; Standard, dose not given) | Percent Inhibition ([1]; Standard, dose not given) | Vol(ml) Ascites Fluid ([1]; Standard, dose not given) | No. of Animals Survived on Day 10 ([1]; mouse, in vivo) | lowers serum cholesterol [2] | lowers serum triglyceride levels [2]
Sc1ncnc2nc[nH]c12 [6-mercaptopurine, reference compound] | 2.5 | 99.9% | 0.10 mL | 6 |  | 
CCOC(=O)C(C)(C)Oc1ccc(Cl)cc1 [clofibrate] |  |  |  |  | 6-15% | 25%

From patent US4550186A, “Binuclear copper (II) carboxylates formed from amine-carboxyboranes” (Duke University, priority 1983, dated 1985)
